Results as given in patent US8697385B1, “Protein controlling synthesis of collagen and associated methods” (Florida State University Research Foundation, Inc., priority 2009, dated 2014).

Columns and labels:
Assay type in all cases: cell-based, human
LARP6 and vimentin = experiment: Coimmunoprecipitation of vimentin with HA-tagged LARP6; settings: lung fibroblasts; puromycin 200 μg/ml 2 h vs cycloheximide
Method: (§1) ML-7, blebbistatin, cytochalasin B, puromycin, and cycloheximide were purchased from Sigma. ML-7 was used at 40 μM, blebbistatin was used at 100 μM, and cytochalasin B was used at 20 μM. Cells were incubated with the drugs for 16 h before analysis. Puromycin (200 μg/ml) and cycloheximide (100 μg/ml) were added to the cells for 2 h. Human lung fibroblasts have been described previously.16 Scleroderma fibroblasts were purchased from the European Collection of Cell Cultures (cell line BM0070) and derived from the skin of a scleroderma patient. MEFs were derived from knock-in mice in which the 5′SL of the collagen α1(I) gene has been mutated (Parsons et al., submitted). […] [^32P]dCTP was included in the PCR step to label the products, which were resolved on sequencing gels, as described previously.^8,31,49,50 When RNA from polysomal fractions was analyzed, an equal aliquot of each fraction was used. […]
(§2) One of the roles of nonmuscle myosin filaments may be to present collagen mRNAs to ribosomes. Therefore, we assessed if the association of collagen mRNAs with nonmuscle myosin is dependent on intact polysomes. […] We then immunoprecipitated nonmuscle myosin from lung fibroblasts treated with cycloheximide or puromycin and analyzed if this can change the pull-down of collagen mRNAs. As control, the association with vimentin was analyzed in the same samples (FIG. 9b). […]

[1] = tested on: LARP6 and nonmuscle myosin; experiment: Coimmunoprecipitation of nonmuscle myosin IIB with HA-tagged LARP6; settings: lung fibroblasts; puromycin 200 μg/ml 2 h vs cycloheximide
Method: as §1, with “submitted). Several independent cell isolates were used throughout the study. All cells were cultured in Dulbecco's modified Eagle's medium supplemented with 10% fetal bovine serum for up to 10 passages. Plasmid constructs and adenovirus preparation.” for “submitted).”
One of the roles of nonmuscle myosin filaments may be to present collagen mRNAs to ribosomes. Therefore, we assessed if the association of collagen mRNAs with nonmuscle myosin is dependent on intact polysomes. […]

vimentin = experiment: Immunoprecipitation of vimentin and RT-PCR of collagen mRNAs; settings: lung fibroblasts; puromycin (dissociation of polysomes) vs cycloheximide
Method: as §1, §2

myosin IIB = experiment: Western blot analysis of total nonmuscle myosin IIB level; settings: lung fibroblasts; puromycin 200 μg/ml 2 h vs cycloheximide-treated cells
Method: as §1, with “submitted). Several independent cell isolates were used throughout the study. All cells were cultured in Dulbecco's modified Eagle's medium supplemented with 10% fetal bovine serum for up to 10 passages.” for “submitted).”
Protein concentration was estimated by the Bradford assay, with bovine serum albumin as standard.^51 Western blot analyses of cellular proteins were performed using 50 μg of protein. […] The medium was collected, and an aliquot was analyzed directly by Western blot analysis. […]

nonmuscle myosin IIB = experiment: Immunoprecipitation of nonmuscle myosin IIB and RT-PCR of collagen mRNAs; settings: lung fibroblasts; cycloheximide 100 μg/ml or puromycin 200 μg/ml, 2 h
Method: as §1, §2

polysomes = experiment: Fractionation of polysomes on sucrose gradients; settings: 15-45% sucrose gradient, Western blot; puromycin or ML-7 treatment
Method: ML-7, blebbistatin, cytochalasin B, puromycin, and cycloheximide were purchased from Sigma. ML-7 was used at 40 μM, blebbistatin was used at 100 μM, and cytochalasin B was used at 20 μM. Cells were incubated with the drugs for 16 h before analysis. Puromycin (200 μg/ml) and cycloheximide (100 μg/ml) were added to the cells for 2 h. Human lung fibroblasts have been described previously.16 Scleroderma fibroblasts were purchased from the European Collection of Cell Cultures (cell line BM0070) and derived from the skin of a scleroderma patient. MEFs were derived from knock-in mice in which the 5′SL of the collagen α1(I) gene has been mutated (Parsons et al., submitted). Several independent cell isolates were used throughout the study. All cells were cultured in Dulbecco's modified Eagle's medium supplemented with 10% fetal bovine serum for up to 10 passages. Plasmid constructs and adenovirus preparation. The HA-tagged LARP6 clone and the deletion mutants have been described previously.^16 Adenoviruses were constructed by recloning of the constructs into the pAdCMVTRACK vector, followed by recombination with the pAdEasy vector and amplification, as described previously.^48 Expression of each construct was verified by Western blot analysis. The viruses made express both the full-size test protein and the green fluorescent protein (GFP), which is encoded by an independent transcription unit.^48 Expression of GFP served as control for viral transduction. RT-PCR analysis Total cellular RNA was isolated using an RNA isolation kit (Sigma). RT-PCRs were performed with 100 ng of total RNA or using rTth reverse transcriptase (Boca Scientific, Boca Raton, Fla.). [^32P]dCTP was included in the PCR step to label the products, which were resolved on sequencing gels, as described previously.^8,31,49,50 When RNA from polysomal fractions was analyzed, an equal aliquot of each fraction was used. The number of cycles was adjusted to within the linear range of the reaction. The primers used for RT-PCR were as follows: h-collagen α1(I), 5′ primer […] (SEQ ID NO:3) and 3′ primer […] (SEQ ID NO:4); h-collagen α2(I), 5′ primer […] (SEQ ID NO:5) and 3′ primer […] (SEQ ID NO:6).
Polysomes were fractionated as described previously.^16 Sucrose fractions (0.5 ml) were collected, and total RNA was extracted by phenol/chloroform and isopropanol precipitation. Equivalent amounts of each fraction were analyzed by RT-PCR. Total proteins were extracted from sucrose fractions by trichloroacetic acid precipitation, and equivalent amounts were analyzed by Western blot analysis.
One of the roles of nonmuscle myosin filaments may be to present collagen mRNAs to ribosomes. Therefore, we assessed if the association of collagen mRNAs with nonmuscle myosin is dependent on intact polysomes. […] Only the anti-myosin antibody immunoprecipitated collagen α1(I) and α2(I) mRNAs (lane 1). We then immunoprecipitated nonmuscle myosin from lung fibroblasts treated with cycloheximide or puromycin and analyzed if this can change the pull-down of collagen mRNAs. As control, the association with vimentin was analyzed in the same samples (FIG. 9b). […] The association of collagen mRNAs with vimentin increased after the dissociation of polysomes (lanes 3 and 4). […] To assess if nonmuscle myosin copurifies with polysomes, we fractionated polysomes on sucrose gradients^16 and analyzed for the presence of nonmuscle myosin in the fractions using Western blot analysis (FIG. 9f). […]

Compound: COc1ccc(C[C@H](N)C(=O)N[C@H]2[C@@H](O)[C@H](n3cnc4c(N(C)C)ncnc43)O[C@@H]2CO)cc1 [puromycin]
- interaction of LARP6 with vimentin (LARP6 and vimentin): increased
- interaction of LARP6 and nonmuscle myosin [1]: decreased
- association of collagen mRNAs with vimentin (vimentin): increased
- total level of nonmuscle myosin (myosin IIB): did not change
- collagen α1(I) and α2(I) mRNAs pulled down with nonmuscle myosin IIB (nonmuscle myosin IIB): the great majority of these mRNAs were absent
- nonmuscle myosin in polysomal fractions (polysomes): some nonmuscle myosin was lost, mostly from fractions 1-10
